From US4772607A, “Dialkenyl derivatives of xanthine, pharmaceutical compositions and methods of use therefor” (Warner-Lambert Company, priority 1986, dated 1988)
Values joined by “and” are separate entries in the source; they are usually repeats but may differ in a detail not shown here. Equal values may be shown once. Where a name gives a salt, the structure may show the parent alone.

Legend:
[1] = system: A1 and A2 adenosine receptor; settings: disclosed by Hamilton et al, J. Med. Chem. (1985) 28: 1071; cited from earlier work
[2] = system: locomotor suppressant effects of A1 selective adenosine agonist CPA; assay: CNS activity: antagonism of locomotor suppressant effect of A1 agonist CPA in mice; type: in vivo, mouse (male Swiss-Webster)
Protocol: (§1) The procedure employs naive animals obviating the need for extensive training and precluding possible cumulative drug effects.
(§2) Suspensions are ultrasonicated for 3 minutes.

[3] = system: locomotor suppressant effects of A2 selective agonist CV-1808; assay: CNS activity: antagonism of locomotor suppressant effect of A2 agonist CV-1808 in mice; type: in vivo, mouse (male Swiss-Webster); settings: for Locomotor activity, % suppression (B, A2 agonist alone): CV-1808 8 mg/kg IP alone
Protocol: as §1, §2

A1 adenosine receptor = target: T1, A1 adenosine receptor (Rattus norvegicus, UniProt P25099); assay: Adenosine Receptor Binding--A1 Receptor Affinity (RBA1), [3H]-CHA, rat whole brain membranes; design: species or system rat (male Long-Evans); settings: [3H]-CHA 1.0 nM, 25° C., one hour, pH 7.7; read-out: RBA-1 IC50 (adenosine A1 receptor affinity)
T1 construct: Whole brain minus cerebellum and brainstem from male Long-Evans rats (150-200 g) is homogenized; from tissue; host or cells: rat whole brain minus cerebellum and brainstem, membranes
T1 sequence (P25099 1-326): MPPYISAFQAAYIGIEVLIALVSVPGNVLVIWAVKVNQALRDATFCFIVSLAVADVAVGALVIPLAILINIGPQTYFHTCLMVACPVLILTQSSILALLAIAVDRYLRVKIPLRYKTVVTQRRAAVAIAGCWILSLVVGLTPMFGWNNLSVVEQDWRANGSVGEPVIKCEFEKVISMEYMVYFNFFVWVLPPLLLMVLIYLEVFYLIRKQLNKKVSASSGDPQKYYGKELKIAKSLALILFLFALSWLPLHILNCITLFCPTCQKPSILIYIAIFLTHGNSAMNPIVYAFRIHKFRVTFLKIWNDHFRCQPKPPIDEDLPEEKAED
Protocol: Adenosine Receptor Binding--A1 Receptor Affinity (RBA1)
Whole brain minus cerebellum and brainstem from male Long-Evans rats (150-200 g) is homogenized in 30 volumes of ice-cold 0.05M Tris-HCl buffer pH 7.7 using a Brinkman Polytron PT-10, (setting number 6 for 20 seconds) and centrifuged for ten minutes at 20,000×g (Sorvall RC-2), 4° C. The supernatant is discarded, and the pellet is resuspended and centrifuged as before. The pellet is resuspended in 20 ml Tris-HCl buffer containing two International Units/ml of adenosine deaminase (Sigma type III from calf intestinal mucosa), incubated at 37° C. for 30 minutes, then subsequently at 0° C. for ten minutes. The homogenate is again centrifuged, and the final pellet is resuspended in ice-cold 0.05M Tris-HCl buffer pH 7.7 to a concentration of 20 mg/ml original wet tissue weight and used immediately.
Tissue homogenate (10 mg/ml) is incubated in 0.05M Tris-HCl buffer pH 7.7 containing 1.0 nM [^3 H]-N6-cyclohexyladenosine ([^3 H]-CHA) with or without test agents in triplicate for one hour at 25° C. Incubation volume was 2 ml. Unbound [^3 H]-CHA is separated by rapid filtration under reduced pressure through Whatman glass fiber (GF/B) filters. The filters are rinsed three times with 5 ml of ice-cold 0.05M Tris-HCl buffer pH 7.7. The radio-labeled ligand retained on the filter is measured by liquid scintillation spectrophotometry after shaking the filters for one hour or longer on a mechanical shaker in 10 ml of Beckman Ready-Solv HP scintillation cocktail.
The Scatchard plot is calculated by linear regression of the line obtained by plotting the amount of radioligand bound (pmoles/gram of tissue) versus [formula] Since the amount of radioligand bound is a small fraction of the total amount added, free radioligand is defined as the concentration of (nM) of radioligand added to the incubation mixture. The Hill coefficient is calculated by linear regression of the line obtained by plotting the log of the bound radioligand vs the log of the [formula] The maximal number of binding sites (Bmax) is calculated from the Scatchard plot.

A2 adenosine receptor = target: T2, A2 adenosine receptor (Rattus norvegicus, UniProt P30543); assay: Adenosine Receptor Binding--A2 Receptor Affinity (RBA2), [3H]NECA, rat striatal membranes; design: species or system rat (Sprague-Dawley); settings: [3H]NECA 4 nM, 50 nM N6-cyclopentyladenosine, 25° C., 60 minutes; read-out: RBA-2 IC50 (adenosine A2 receptor affinity)
T2 construct: Brains are thawed and then kept on ice while the striata are dissected out; tissue Pel-Freez (Rogers, Ark.); host or cells: rat striatum, membranes
Protocol: Adenosine Receptor Binding--A2 Receptor Affinity (RBA2)
The membrane suspension (5 mg/0.79 ml) contained sufficient MgCl2 and adenosine deaminase to give 10 mM and 0.1 units/ml, respectively, final concentration in the incubation.
[formula] where Y is cpm bound
T is cpm total binding without drug
S is cpm specific binding without drug
D is the concentration of drug and
K is the IC50 of the drug

[4] = CNS activity: locomotor activity of antagonist alone in mice (reference control); type: in vivo, mouse (male Swiss-Webster); settings: antagonist 10 mg/kg IP alone; CV-1808 experiment

T2 sequence (P30543 whole entry): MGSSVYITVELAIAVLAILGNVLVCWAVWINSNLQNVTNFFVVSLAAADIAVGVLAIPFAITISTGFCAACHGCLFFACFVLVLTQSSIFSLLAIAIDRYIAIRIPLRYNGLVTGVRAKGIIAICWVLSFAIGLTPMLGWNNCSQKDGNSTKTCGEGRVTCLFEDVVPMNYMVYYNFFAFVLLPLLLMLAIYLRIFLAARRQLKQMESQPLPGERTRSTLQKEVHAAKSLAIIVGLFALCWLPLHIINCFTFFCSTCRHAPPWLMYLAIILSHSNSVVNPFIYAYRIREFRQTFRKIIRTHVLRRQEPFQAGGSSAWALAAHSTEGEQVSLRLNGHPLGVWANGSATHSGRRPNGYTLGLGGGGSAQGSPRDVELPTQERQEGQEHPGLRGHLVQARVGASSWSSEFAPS

Compound: 8-(4-sulfonylphenyl)-3,9-dihydro-1,3-bis(2-propenyl)-1H-purine-2,6-dione
- A1 and A2 adenosine receptor binding activity (in words) [1]: having A1 and A2 adenosine receptor binding activity

Compound: C=CCn1c(=O)c2nc(C)[nH]c2n(CC=C)c1=O [8-methyl-3,9-dihydro-1,3-bis(2-propenyl)-1H-purine-2,6-dione]
- A1 and A2 adenosine receptor binding activity (in words) [1]: having A1 and A2 adenosine receptor binding activity

Compound: OC[C@H]1O[C@@H](n2cnc3c(NC4CCCC4)ncnc32)[C@H](O)[C@@H]1O [CPA, N^6 -cyclopentyladenosine, reference compound]
- Locomotor activity, % suppression (B, A1 agonist alone) ([2]; CPA 2 mg/kg IP alone): 90% and 94%

Compound: Nc1nc(Nc2ccccc2)nc2c1ncn2[C@@H]1O[C@H](CO)[C@@H](O)[C@H]1O [CV-1808, 2-anilinoadenosine, reference compound]
- Locomotor activity, % suppression (B, A2 agonist alone) ([3]; 8 mg/kg): 83%
- Locomotor activity, % suppression (B, A2 agonist alone) ([3]; listed as CV-1810): 62%

Compound: C=CCn1c(=O)c2nc(-c3ccc(Cl)cc3N)[nH]c2n(CC=C)c1=O [Example 1, 8-(2-Amino-4-chlorophenyl)-3,9-dihydro-1,3-bis(2-propenyl)-1H-purine-2,6-dione]
- IC50 (A1 adenosine receptor): 130 nM
- A1 and A2 adenosine receptor binding activity (in words) [1]: having A1 and A2 adenosine receptor binding activity

Compound: C=CCn1c(=O)c2nc(-c3ccc(S(=O)(=O)O)cc3)[nH]c2n(CC=C)c1=O [Example 2, 4-(2,3,6,7-Tetrahydro-2,6-dioxo-1,3-di-2-propenyl-1H-purine-8-yl)benzenesulfonic acid]
- IC50 (A1 adenosine receptor): 6960 nM

Compound: C=CCn1c(=O)c2[nH]c(-c3ccc(S(=O)(=O)NCCCN(C)C)cc3)nc2n(CC=C)c1=O [Example 3, N-[3-(dimethylamino)propyl]-4-(2,3,6,7-tetrahydro-2,6-dioxo-1,3-di-2-propenyl-1H-purine-8-yl)benzenesulfonamide monohydrochloride]
- IC50 (A1 adenosine receptor): 260 nM

Compound: C=CCn1c(=O)c2[nH]c(C3CCCC3)nc2n(CC=C)c1=O [Example 4, 8-Cyclopentyl-3,7-dihydro-1,3-bis(2-propenyl)-1H-purine-2,6-dione]
- IC50 (A1 adenosine receptor): 9 nM
- IC50 (A2 adenosine receptor): 3.5 µM
- Locomotor activity, % suppression (C, agonist + antagonist) ([2]; antagonist 10 mg/kg + CPA 2 mg/kg, IP): 16%
- % Reversal (B - C) ÷ B × 100, against CPA (A1) ([2]; antagonist 10 mg/kg, CPA 2 mg/kg, IP): 82%
- Reversal Rating A1 (against CPA) ([2]; paired t-test of B and C): A (if the values are significantly different (p<0.05) from each other then the dose effect is given a reversal rating of "A")
- % Reversal (B - C) ÷ B × 100, against CV-1808 (A2) ([3]; antagonist 10 mg/kg, CV-1808 8 mg/kg, IP): 8%
- Locomotor activity, % suppression (C, agonist + antagonist) ([3]; antagonist + CV-1808 8 mg/kg, IP, antagonist 10 mg/kg): 57%
- Reversal Rating A2 (against CV-1808) ([3]; paired t-test of B and C): N (if the data are insignificant (p>0.05) then the dose effect is given a rating of "N")
- Locomotor activity, % suppression (A, antagonist alone) [4]: 18%

Compound: C=CCn1c(=O)c2[nH]c(-c3ccc(S(=O)(=O)NCCCN(C)C)cc3)nc2n(CC=C)c1=O [N-[3-(dimethylamino)propyl]-4-(2,3,6,7-tetrahydro-2,6-dioxo-1,3-2-propenyl-1H-purine-8-yl)benzensulfonamide]
- A1 and A2 adenosine receptor binding activity (in words) [1]: having A1 and A2 adenosine receptor binding activity
